For one experiment, the system named is A549. As to the kind of experiment: Antiproliferative activity against human A549 cells assessed as reduction in cell viability incubated for 72 hrs by SRB assay. It is filed as functional, cell-based. To be noted: A549, 72 h. (In general: In SRB staining, fixed cells bind dye roughly in proportion to their protein.)
A short description of experiment [1]: Cytotoxicity against human NHBE cells assessed as reduction in cell viability incubated for 72 hrs by SRB assay. It counts as cell-based.
Experiment [2] in a line: Antiproliferative activity against human KBVIN cells assessed as reduction in cell viability incubated for 72 hrs by SRB assay. It is filed as functional, cell-based.
Experiment [3] concerns the target T1, M-phase inducer phosphatase 1 (Homo sapiens, UniProt P30304).
T1 sequence (P30304 whole entry): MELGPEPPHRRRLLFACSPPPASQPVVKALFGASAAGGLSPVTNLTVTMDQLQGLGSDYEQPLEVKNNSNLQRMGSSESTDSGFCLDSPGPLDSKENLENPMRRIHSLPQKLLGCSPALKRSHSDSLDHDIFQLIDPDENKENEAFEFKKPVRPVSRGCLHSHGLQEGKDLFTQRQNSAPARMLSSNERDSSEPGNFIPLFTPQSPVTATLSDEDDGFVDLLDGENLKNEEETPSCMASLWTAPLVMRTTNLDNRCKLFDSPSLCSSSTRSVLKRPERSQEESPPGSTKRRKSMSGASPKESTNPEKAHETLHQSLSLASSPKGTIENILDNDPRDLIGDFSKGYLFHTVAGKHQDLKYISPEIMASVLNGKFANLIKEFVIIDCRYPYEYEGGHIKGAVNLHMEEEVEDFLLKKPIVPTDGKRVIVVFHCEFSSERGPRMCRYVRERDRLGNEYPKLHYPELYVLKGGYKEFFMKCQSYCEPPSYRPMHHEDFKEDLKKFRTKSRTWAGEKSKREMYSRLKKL
In words: Inhibition of recombinant human Cdc25A using OMFP as substrate preincubated for 5 to 8 mins and measured every 5 mins 60 mins by fluorescence based assay.

Experiment [4] deals with T2, M-phase inducer phosphatase 3 (Homo sapiens) (UniProt P30307).
T2 sequence (whole entry): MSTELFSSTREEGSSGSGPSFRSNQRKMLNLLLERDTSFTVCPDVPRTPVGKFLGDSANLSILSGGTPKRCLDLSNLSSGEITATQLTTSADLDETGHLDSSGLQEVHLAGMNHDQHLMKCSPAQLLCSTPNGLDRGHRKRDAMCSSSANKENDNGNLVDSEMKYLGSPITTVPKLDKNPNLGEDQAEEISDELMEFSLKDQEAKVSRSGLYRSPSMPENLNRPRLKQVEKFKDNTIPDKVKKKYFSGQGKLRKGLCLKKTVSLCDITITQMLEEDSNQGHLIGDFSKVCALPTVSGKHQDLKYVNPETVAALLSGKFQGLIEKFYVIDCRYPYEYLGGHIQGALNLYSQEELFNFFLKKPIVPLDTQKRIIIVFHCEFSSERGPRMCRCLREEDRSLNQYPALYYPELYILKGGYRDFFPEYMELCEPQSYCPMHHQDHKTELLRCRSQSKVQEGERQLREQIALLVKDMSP
In words: Inhibition of recombinant human Cdc25C at 10 uM using OMFP as substrate preincubated for 5 to 8 mins and measured every 5 mins 60 mins by fluorescence based assay.

Experiment [5] concerns the target T3, M-phase inducer phosphatase 2 (Homo sapiens, UniProt P30305).
T3 sequence (P30305 whole entry): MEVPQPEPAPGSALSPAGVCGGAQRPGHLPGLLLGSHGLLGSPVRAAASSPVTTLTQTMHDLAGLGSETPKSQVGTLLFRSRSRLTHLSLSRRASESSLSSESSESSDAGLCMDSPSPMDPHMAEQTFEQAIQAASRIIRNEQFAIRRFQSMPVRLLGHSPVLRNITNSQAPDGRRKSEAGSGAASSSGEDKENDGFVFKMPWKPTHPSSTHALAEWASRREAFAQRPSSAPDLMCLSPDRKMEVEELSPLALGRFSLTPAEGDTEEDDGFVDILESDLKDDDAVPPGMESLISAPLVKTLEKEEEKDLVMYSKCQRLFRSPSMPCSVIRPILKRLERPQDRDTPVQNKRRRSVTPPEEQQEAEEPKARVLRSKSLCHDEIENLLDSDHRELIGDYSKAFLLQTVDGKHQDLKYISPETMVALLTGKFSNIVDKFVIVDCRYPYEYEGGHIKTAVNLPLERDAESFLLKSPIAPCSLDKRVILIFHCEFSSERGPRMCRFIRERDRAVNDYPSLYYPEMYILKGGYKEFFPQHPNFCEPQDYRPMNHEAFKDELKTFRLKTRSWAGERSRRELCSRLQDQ
In words: Inhibition of recombinant human Cdc25B using OMFP as substrate preincubated for 5 to 8 mins and measured every 5 mins 60 mins by fluorescence based assay.

In a further experiment the test system is KB. In words: Antiproliferative activity against human KB cells assessed as reduction in cell viability incubated for 72 hrs by SRB assay. It counts as functional, cell-based.
Another experiment concerns MCF7. In words: Antiproliferative activity against human MCF7 cells assessed as reduction in cell viability incubated for 72 hrs by SRB assay. It counts as functional, cell-based. The note with it: MCF7, 72 h.
The target in experiment [6] is T4, M-phase inducer phosphatase 3 (Homo sapiens, UniProt P30307).
T4 sequence (P30307 whole entry): T2 sequence (whole entry)
As to the kind of experiment: Inhibition of recombinant human Cdc25C using OMFP as substrate preincubated for 5 to 8 mins and measured every 5 mins 60 mins by fluorescence based assay.

Experiment [7] addresses T5, M-phase inducer phosphatase 1 (Homo sapiens) (UniProt P30304).
T5 sequence (whole entry): T1 sequence (P30304 whole entry)
In words: Inhibition of recombinant human Cdc25A at 10 uM using OMFP as substrate preincubated for 5 to 8 mins and measured every 5 mins 60 mins by fluorescence based assay relative to control.

For the next experiment, the system named is MDA-MB-231. In words: Antiproliferative activity against human MDA-MB-231 cells assessed as reduction in cell viability incubated for 72 hrs by SRB assay. The note with it: MDA-MB-231, 72 h. It counts as functional, cell-based.
Experiment [8] deals with T6, M-phase inducer phosphatase 2 (Homo sapiens) (UniProt P30305).
T6 sequence (whole entry): T3 sequence (P30305 whole entry)
In words: Inhibition of recombinant human Cdc25B at 10 uM using OMFP as substrate preincubated for 5 to 8 mins and measured every 5 mins 60 mins by fluorescence based assay.

The species entered for experiment [9] is Homo sapiens. As to the kind of experiment: Selectivity index, ratio of IC50 for recombinant human Cdc25A to IC50 for recombinant human Cdc25C.
The species named for experiment [10] is Homo sapiens. In words: Selectivity index, ratio of IC50 for recombinant human Cdc25B to IC50 for recombinant human Cdc25C.
Experiment [11] deals with T2, M-phase inducer phosphatase 3 (Homo sapiens). In words: Potency index, ratio of IC50 of NSC663284 to IC50 of compound for inhibition of recombinant human Cdc25C using OMFP as substrate preincubated for 5 to 8 mins and measured every 5 mins 60 mins by fluorescence based assay.

Molecules are shown by their SMILES. Calls of active or inactive are those of the source. No cut-off for these calls is given here.

One may read the IC50 as the concentration that inhibits the measured activity by half. Consider `CC(=O)O[C@H]1C(=O)[C@@]2(C)[C@H]([C@H](OC(=O)c3ccccc3)[C@]3(O)C[C@H](OC(=O)[C@H](O)[C@@H](NC(=O)c4ccccc4)c4ccccc4)C(C)=C1C3(C)C)[C@]1(OC(C)=O)CO[C@@H]1C[C@@H]2O` [PACLITAXEL], for which the IC50 in the experiment on A549 came out at 0.00752 µM; in [1], 36.5 µM; in [2], 3.15 µM.
For orientation: inhibition means the share of the control response that was lost under treatment. `N#Cc1cccc(Cn2cc(CNC3=C(Cl)C(=O)c4cccnc4C3=O)nn2)c1`: the IC50 in [3] was 0.54 µM; in experiment [5], 1 µM; in the experiment with A549, 4.92 µM; with KB, 5.01 µM; in the experiment on MCF7 it was 4.84 µM; in experiment [1], 6.43 µM. Also, the figures for the IC50 (in [6]; in [2]; in the experiment with MDA-MB-231) were 0.21 µM, 11.6 µM and 4.9 µM, respectively. In addition, the inhibition result in [4] and in experiment [8] was “Active” throughout. Further, the inhibition in [7] was found to be 69.1%.
On to `Cc1ccc(Cn2cc(CNC3=C(Cl)C(=O)c4cccnc4C3=O)nn2)cc1`, for which the values for the Ratio IC50 (in the experiment filed under Homo sapiens [9]; in the experiment filed under Homo sapiens [10]; in experiment [11]) were 6, 15 and 9, respectively. The IC50 in experiment [3] was 0.53 µM; in experiment [5], 1.39 µM; in the experiment with A549, 3.92 µM; in the experiment on KB, 5.05 µM; in the experiment on MCF7, 4.71 µM; in [1], 6 µM. In addition, the IC50 amounted to 0.09 µM in experiment [6], 6.81 µM in [2] and 4.63 µM in the experiment on MDA-MB-231. Besides, the inhibition entry in experiment [4] and in experiment [8] was “Active” in each case. Further, the inhibition in [7] worked out at 74.4%.
With `N#Cc1ccccc1Cn1cc(CNC2=C(Cl)C(=O)c3cccnc3C2=O)nn1`, the IC50 in experiment [3] worked out at 1.2 µM; in [5], 2.79 µM; in the experiment with A549, 4.5 µM; in the experiment on KB it was 5.13 µM; in the experiment with MCF7 it was 4.7 µM; in experiment [1], 2.18 µM. The IC50 worked out at 0.42 µM in [6], 9.02 µM in experiment [2] and 4.86 µM in the experiment on MDA-MB-231. The inhibition entry in [4] and in experiment [8] was “Active” throughout. Besides, the inhibition in experiment [7] stood at 57.2%.
Turning to `O=C1C(Cl)=C(NCCN2CCOCC2)C(=O)c2ncccc21`, the inhibition entry in experiment [4] and in experiment [8] was “Active” throughout. Also, the IC50 with A549 stood at 2.76 µM; in the experiment with KB, 4.89 µM; in the experiment on MCF7, 1 µM; in [1], 3.31 µM; in [2] it was 4.87 µM; in the experiment on MDA-MB-231, 4.97 µM. Also, the inhibition in [7] came to 48.4%.

The values are drawn from ChEMBL document CHEMBL4311970 (Eur J Med Chem, 2019).
